Reference: PMC3897212 (Journal of pharmacokinetics and pharmacodynamics, 2013)
Read-outs that look alike come from different tables or passages of the source. Marks after values point to notes of the source that are not given here.

Experiments:
[1] = patients administered lapatinib; cited from earlier work
[2] = Single 100 mg dose plasma pharmacokinetic study in healthy subjects; type: in vivo; conditions: human, po
[3] = human plasma, cited from earlier work
[4] = Human PBPK model of lapatinib
[5] = mice; owing to ABCB1- and ABCB2-mediated efflux; cited from earlier work
[6] = test system: albumin and alpha-1 acid glycoprotein; conditions: cited from earlier work
[7] = test system: brain metastases from HER2-positive breast cancer; conditions: human patients with brain metastases from HER2-positive breast cancer; cited from earlier work
[8] = Time course tissue distribution / pharmacokinetic study in mice; type: in vivo, female FVB mice; conditions: mouse; for AUC(0-t) / half-life: female, FVB, po
[9] = test system: metastatic breast cancer cells in the brains of mice; conditions: cited from earlier work
[10] = Mouse PBPK model of lapatinib
CYP3A = conditions: cited from earlier work
[11] = slowly perfused tissue, 30 mg/kg
[12] = slowly perfused tissue, 60 mg/kg
[13] = slowly perfused tissue, 90 mg/kg
[14] = first-order, parameter estimate (CV%) fitted to 60 mg/kg cohort
[15] = parameter estimate (CV%) fitted to 60 mg/kg cohort

CS(=O)(=O)CCNCc1ccc(-c2ccc3ncnc(Nc4ccc(OCc5cccc(F)c5)c(Cl)c4)c3c2)o1 [lapatinib, N-{3-chloro-4-[(3-fluorobenzyl)oxy]phenyl}-6-[5-({[2-(methylsulfonyl)ethyl]amino}methyl)-2-furyl]-4-quinazolinamine]
adverse reactions observed in clinical trials [1]: decreased left ventricular ejection fraction, QT prolongation, hepatotoxicity, diarrhea and interstitial lung disease/pneumonitis | AUC(0-t) [2]: 2.7 µM·h | half-life [2]: 570 min | Observed Tmax ([3]; 25 mg multiple dose, healthy, fasted, median (range)): 2.7 (2.5–4.0) ^e h | Observed Tmax ([3]; 100 mg multiple dose, healthy, fasted, median (range)): 3.0 (2.0–6.0) ^e h | Observed Tmax ([3]; 175 mg single dose, healthy, fasted, median (range)): 3.0 (2.0–4.0) ^f h | Observed Tmax ([3]; 1,200 mg multiple dose, cancer, fasted, median (95 % CI)): 3.6 (3.0–7.9) ^f h | Observed Tmax ([3]; 1,200 mg single dose, cancer, fasted, median (95 % CI)): 3.5 (2.1–6.0) ^g h | Observed Tmax ([3]; 1,250 mg multiple dose, cancer, fasted, median (range)): 3.0 (1.5–8.0) ^f h | Observed Tmax ([3]; 1,250 mg multiple dose, cancer, not fasted, median (range)): 3.0 (2.6–8.0) ^f h | Observed Tmax ([3]; 1,500 mg multiple dose, cancer, fasted, median (range)): 3.0 (0.0–12.2) ^f h | Observed Tmax ([3]; 1,500 mg multiple dose, cancer, not fasted, median (range)): 3.4 (0.0–6.0) ^f h | Observed Tmax ([3]; 1,600 mg multiple dose, cancer, fasted, median (95 % CI)): 5.1 (0.9–8.0) ^g h | Observed Tmax ([3]; 1,800 mg multiple dose, cancer, fasted, median (95 % CI)): 3.9 (3.0–7.9) ^g h | Observed Tmax ([3]; 1,800 mg single dose, cancer, fasted, median (95 % CI)): 3.9 (3.0–8.0) ^g h | Partition coefficient Brain:plasma ([4]; human PBPK model parameter): 10 Ratio | Partition coefficient Intestine:plasma ([4]; human PBPK model parameter): 531 Ratio | Partition coefficient Kidney:plasma ([4]; human PBPK model parameter): 1,064 Ratio | Partition coefficient Liver:plasma ([4]; human PBPK model parameter): 12 Ratio | Partition coefficient Lung:plasma ([4]; human PBPK model parameter): 1,643 Ratio | Partition coefficient Slowly perfused:plasma ([4]; human PBPK model parameter): 65 Ratio | Metabolism rate constant Intestine ([4]; human, calculated as 1.3 % of liver metabolism): 0.975 ^f h^−1 | central nervous system (CNS) penetration [5]: poor central nervous system (CNS) penetration | bound to albumin and alpha-1 acid glycoprotein [6]: > 99% | Percent unbound ([6]; plasma, value set in PBPK model): 1% | unbound fraction of drug in the plasma ([6]; value set in PBPK model): 0.01 | CNS antitumor activity [7]: modest CNS antitumor activity | AUC(0-t) ([8]; brain, 30 mg/kg): 0.441 µM·h | AUC(0-t) ([8]; brain, 60 mg/kg): 1.31 µM·h | half-life ([8]; brain, 60 mg/kg): 187 min | AUC(0-t) ([8]; brain, 90 mg/kg): 2.26 µM·h | half-life ([8]; brain, 90 mg/kg): 106 min | AUC(0-t) ([8]; heart, 30 mg/kg): 7.16 µM·h | half-life ([8]; heart, 30 mg/kg): 155 min | AUC(0-t) ([8]; heart, 60 mg/kg): 26.5 µM·h | half-life ([8]; heart, 60 mg/kg): 183 min | AUC(0-t) ([8]; heart, 90 mg/kg): 55.2 µM·h | half-life ([8]; heart, 90 mg/kg): 139 min | AUC(0-t) ([8]; intestine, 30 mg/kg): 79.9 µM·h | half-life ([8]; intestine, 30 mg/kg): 167 min | AUC(0-t) ([8]; intestine, 60 mg/kg): 235 µM·h | half-life ([8]; intestine, 60 mg/kg): 183 min | AUC(0-t) ([8]; intestine, 90 mg/kg): 260 µM·h | half-life ([8]; intestine, 90 mg/kg): 153 min | AUC(0-t) ([8]; kidney, 30 mg/kg): 50.4 µM·h | half-life ([8]; kidney, 30 mg/kg): 152 min | AUC(0-t) ([8]; kidney, 60 mg/kg): 138 µM·h | half-life ([8]; kidney, 60 mg/kg): 214 min | AUC(0-t) ([8]; kidney, 90 mg/kg): 227 µM·h | half-life ([8]; kidney, 90 mg/kg): 151 min | AUC(0-t) ([8]; liver, 30 mg/kg): 84.9 µM·h | half-life ([8]; liver, 30 mg/kg): 149 min | half-life ([8]; liver, 60 mg/kg): 165 min | AUC(0-t) ([8]; liver, 90 mg/kg): 261 µM·h | half-life ([8]; liver, 90 mg/kg): 115 min | AUC(0-t) ([8]; lung, 30 mg/kg): 92.4 µM·h | half-life ([8]; lung, 30 mg/kg): 143 min | half-life ([8]; lung, 60 mg/kg): 182 min | AUC(0-t) ([8]; lung, 90 mg/kg): 623 µM·h | half-life ([8]; lung, 90 mg/kg): 103 min | AUC(0-t) ([8]; plasma, 30 mg/kg): 12 µM·h | half-life ([8]; plasma, 30 mg/kg): 164 min | AUC(0-t) ([8]; plasma, 60 mg/kg): 24.1 µM·h | half-life ([8]; plasma, 60 mg/kg): 205 min | AUC(0-t) ([8]; plasma, 90 mg/kg): 48.2 µM·h | half-life ([8]; plasma, 90 mg/kg): 142 min | AUC(0-t) [8, 11]: 2.74 µM·h | half-life [8, 11]: 233 min | AUC(0-t) [8, 12]: 9.52 µM·h | half-life [8, 12]: 154 min | AUC(0-t) [8, 13]: 18.9 µM·h | half-life [8, 13]: 93 min | dose linearity of pharmacokinetics ([8]; all tissues, 30–90 mg/kg dose range, dose-dependent increase in AUC0–16 h and constant CL): linear pharmacokinetics | burden of metastatic breast cancer cells in the brain [9]: reduce the burden of metastatic breast cancer cells in the brains of mice | Metabolism rate constant Intestine ([10]; calculated as 2 % of liver metabolism): 2.5 ^e h^−1 | Absorption rate constant Lumen → Intestine [10, 14]: 0.237 (2) h^−1 | Metabolism rate constant Liver [10, 14]: 127 (13) h^−1 | Partition coefficient Brain:plasma [10, 15]: 10 (19) Ratio | Partition coefficient Intestine:plasma [10, 15]: 531 (31) Ratio | Partition coefficient Kidney:plasma [10, 15]: 1,064 (18) Ratio | Partition coefficient Liver:plasma [10, 15]: 12 (20) Ratio | Partition coefficient Lung:plasma [10, 15]: 1,643 (19) Ratio | Partition coefficient Slowly perfused:plasma [10, 15]: 65 (20) Ratio

Cc1ncc2n1-c1ccc(Cl)cc1C(c1ccccc1F)=NC2 [midazolam]
microsomal intrinsic clearance (CYP3A; human liver): 15800 mL/min | microsomal intrinsic clearance (CYP3A; human small intestine): 213.7 mL/min | small intestine microsomal intrinsic clearance as percent of liver (CYP3A; human): 1.35%
